# PMC9313475, “Green Tea Catechins, (−)‐Catechin Gallate, and (−)‐Gallocatechin Gallate are Potent Inhibitors of ABA‐Induced Stomatal Closure” (Advanced Science, 2022)
# Columns and labels:
# GORK = biological target: T1, GORK (Arabidopsis thaliana, UniProt Q94A76); assay: two-electrode voltage clamp in Xenopus oocytes expressing the channel, […]; format: cell-based
# T1 sequence (Q94A76 1-820): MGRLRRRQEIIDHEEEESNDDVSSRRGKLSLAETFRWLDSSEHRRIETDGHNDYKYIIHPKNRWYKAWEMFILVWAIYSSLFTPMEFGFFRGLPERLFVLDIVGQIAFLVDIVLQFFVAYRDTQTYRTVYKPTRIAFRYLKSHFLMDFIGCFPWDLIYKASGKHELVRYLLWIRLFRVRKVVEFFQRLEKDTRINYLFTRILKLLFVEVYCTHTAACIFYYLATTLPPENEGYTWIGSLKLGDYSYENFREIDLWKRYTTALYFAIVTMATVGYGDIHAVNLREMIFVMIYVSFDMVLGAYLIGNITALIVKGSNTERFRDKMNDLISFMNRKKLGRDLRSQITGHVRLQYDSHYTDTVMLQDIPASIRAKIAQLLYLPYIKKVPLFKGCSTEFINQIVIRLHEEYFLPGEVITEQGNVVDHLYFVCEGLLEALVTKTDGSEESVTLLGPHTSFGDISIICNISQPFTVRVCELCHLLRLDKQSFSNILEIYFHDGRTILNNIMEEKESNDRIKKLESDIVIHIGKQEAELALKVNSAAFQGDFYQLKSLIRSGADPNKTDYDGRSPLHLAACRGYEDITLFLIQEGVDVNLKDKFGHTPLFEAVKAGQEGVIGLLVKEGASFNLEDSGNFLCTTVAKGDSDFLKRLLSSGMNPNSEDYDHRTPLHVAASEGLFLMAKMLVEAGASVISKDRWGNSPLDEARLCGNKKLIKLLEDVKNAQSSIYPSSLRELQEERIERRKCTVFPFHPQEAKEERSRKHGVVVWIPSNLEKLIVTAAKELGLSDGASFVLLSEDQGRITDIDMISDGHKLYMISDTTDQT
# KAT2 [1] = biological target: T2, KAT2 (Arabidopsis thaliana, UniProt Q38849); assay: as above; format: cell-based
# KAT1 = KAT1 (Arabidopsis thaliana, UniProt Q39128); assay: as above; format: cell-based
# KAT2 [2] = biological target: T2, KAT2; assay: cell-based; settings: read-out: % inhibition at 0.5 mM
# T2 sequence (Q38849 whole entry): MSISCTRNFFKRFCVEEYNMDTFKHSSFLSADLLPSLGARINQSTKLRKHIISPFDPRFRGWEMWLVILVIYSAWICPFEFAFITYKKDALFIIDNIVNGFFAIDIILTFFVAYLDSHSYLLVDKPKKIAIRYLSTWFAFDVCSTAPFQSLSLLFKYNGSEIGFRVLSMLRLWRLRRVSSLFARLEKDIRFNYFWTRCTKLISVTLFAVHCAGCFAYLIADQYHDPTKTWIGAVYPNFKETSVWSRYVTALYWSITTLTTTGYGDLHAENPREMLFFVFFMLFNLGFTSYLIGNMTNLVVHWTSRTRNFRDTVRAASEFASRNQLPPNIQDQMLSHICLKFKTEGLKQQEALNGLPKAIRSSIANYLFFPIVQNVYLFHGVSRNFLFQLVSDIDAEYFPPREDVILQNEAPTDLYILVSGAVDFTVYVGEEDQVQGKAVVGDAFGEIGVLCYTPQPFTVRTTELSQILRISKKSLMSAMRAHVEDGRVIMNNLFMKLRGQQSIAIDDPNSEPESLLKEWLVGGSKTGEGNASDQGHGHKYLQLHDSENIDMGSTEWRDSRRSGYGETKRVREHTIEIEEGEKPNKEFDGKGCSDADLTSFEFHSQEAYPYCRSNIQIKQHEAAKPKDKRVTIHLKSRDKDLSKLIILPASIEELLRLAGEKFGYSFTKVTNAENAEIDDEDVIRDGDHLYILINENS
# Chain of KAT1 (Q39128 whole entry): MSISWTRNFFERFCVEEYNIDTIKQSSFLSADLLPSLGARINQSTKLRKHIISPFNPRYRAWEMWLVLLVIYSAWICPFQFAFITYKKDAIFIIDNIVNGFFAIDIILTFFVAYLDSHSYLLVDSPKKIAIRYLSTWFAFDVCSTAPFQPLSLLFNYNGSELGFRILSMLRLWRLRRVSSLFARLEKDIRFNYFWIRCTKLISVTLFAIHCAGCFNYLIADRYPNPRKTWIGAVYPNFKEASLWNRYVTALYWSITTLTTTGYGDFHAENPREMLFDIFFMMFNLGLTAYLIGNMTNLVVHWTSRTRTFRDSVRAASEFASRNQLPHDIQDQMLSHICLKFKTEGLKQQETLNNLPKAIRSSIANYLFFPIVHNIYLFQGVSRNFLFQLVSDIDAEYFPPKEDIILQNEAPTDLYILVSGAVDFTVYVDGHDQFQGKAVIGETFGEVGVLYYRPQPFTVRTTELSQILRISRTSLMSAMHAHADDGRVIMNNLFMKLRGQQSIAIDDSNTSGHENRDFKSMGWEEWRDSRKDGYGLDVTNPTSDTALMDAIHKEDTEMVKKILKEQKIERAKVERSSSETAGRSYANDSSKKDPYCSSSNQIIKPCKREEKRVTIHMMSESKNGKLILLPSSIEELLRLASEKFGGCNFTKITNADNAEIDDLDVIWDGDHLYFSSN
Structure (SMILES),"two-electrode voltage clamp in Xenopus oocytes expressing the channel, 500 μM (GORK)","two-electrode voltage clamp in Xenopus oocytes expressing the channel, 500 μM (KAT2 [1])","two-electrode voltage clamp in Xenopus oocytes expressing the channel, 500 μM (KAT1)",inhibition at 500 µM (KAT2 [2])
"O=C(O[C@@H]1Cc2c(O)cc(O)cc2O[C@H]1c1ccc(O)c(O)c1)c1cc(O)c(O)c(O)c1 [CG, (−)-catechin gallate]","GORK was strongly inhibited by CG and GCG, whereas AKT1 and AKT2 were less sensitive to CG and GCG.","Both CG and GCG inhibited KAT1 and KAT2 (Figure 3A,B).","Both CG and GCG inhibited KAT1 and KAT2 (Figure 3A,B).",
"O=C(O[C@@H]1Cc2c(O)cc(O)cc2O[C@H]1c1cc(O)c(O)c(O)c1)c1cc(O)c(O)c(O)c1 [GCG, (−)-gallocatechin gallate]","GORK was strongly inhibited by CG and GCG, whereas AKT1 and AKT2 were less sensitive to CG and GCG.","Both CG and GCG inhibited KAT1 and KAT2 (Figure 3A,B).","Both CG and GCG inhibited KAT1 and KAT2 (Figure 3A,B).",
"CC[N+](CC)(CC)CC [TEA, tetraethylammonium]",,,,14%
